Activity calls are given as the source filed them. The calls are words filed in the database; no cut-off is given here.
Target: not listed separately
Experiment: (§1) Inhibition of NADH oxidase in beef heart submitochondrial particles by end-window spectrophotometry
Set-up: species or system Bos taurus

Row | IC50 | SMILES
1 | 15.1 µM | C=CC(C)(C)c1[nH]cnc1/C=C1/NC(=O)[C@H](C(C)C)NC1=O [AURANTIAMINE]
2 | 3.9 µM | C=C1C[C@@H]2[C@]3(C)C(=C(O)C(=O)[C@@]2(C)[C@]2(C(=O)OC)C(=O)O[C@H](C)C(=O)[C@@]12C)C(C)(C)C(=O)C[C@@H]3O [terretonin E]
3 | 2.97 µM | C=C1C[C@@H]2[C@@]3(C)C=CC(=O)C(C)(C)C3=C(O)C(=O)[C@@]2(C)[C@]2(C(=O)OC)C(=O)O[C@H](C)C(=O)[C@@]12C [terretonin F]

Row | SMILES | IC50
4 | CCCCCCCCCC[C@H](O)[C@H]1CC[C@H]([C@H]2CC[C@H]([C@H](O)CCCCCCCCCCCCC3C(=O)O[C@@H](C)[C@@H]3O)O2)O1 (stereo partly specified) [LAHERRADURIN] | 0.00018 µM
5 | C=C(C)[C@H]1Cc2c(ccc3c2O[C@@H]2COc4cc(OC)c(OC)cc4[C@@H]2C3=O)O1 [ROTENONE] | 0.0051 µM

Species on record: Bos taurus
Experiment: as §1

Row | Activity | SMILES
6 | inactive | O=c1ccn([C@@H]2O[C@H](CO)[C@@H](O)[C@H]2O)c(=O)[nH]1
